Laboratory results: the NIST ThermoML archive (doi:10.1016/j.jct.2016.03.035)
Where “and” joins values, the source holds several entries; their conditions need not be identical. Equal values may be shown once.

Assay: xn = mol fraction of the nth substance listed
Details: Gas, Buoyancy - hydrostatic balance with magnetic suspension - two sinkers

C [methane] + CCC
Details | mass density
248.15 K, 96.6 kPa, x1 = 0.2658 | 1.7468 kg/m3
248.15 K, 120.09 kPa, x1 = 0.5069 | 1.764 kg/m3 and 1.7641 kg/m3 and 1.7642 kg/m3
248.15 K, 141.7 kPa, x1 = 0.2658 | 2.5863 kg/m3 and 2.5861 kg/m3 and 2.5862 kg/m3
248.15 K, 183.4 kPa, x1 = 0.5069 | 2.7166 kg/m3 and 2.7162 kg/m3 and 2.7167 kg/m3
248.15 K, 184.56 kPa, x1 = 0.2658 | 3.3989 kg/m3 and 3.3987 kg/m3
248.15 K, 220.8 kPa, x1 = 0.2658 | 4.0983 kg/m3 and 4.0981 kg/m3 and 4.0981 kg/m3
248.15 K, 244.4 kPa, x1 = 0.5069 | 3.6494 kg/m3 and 3.6497 kg/m3 and 3.6499 kg/m3
248.15 K, 251.13 kPa, x1 = 0.2658 | 4.6927 kg/m3 and 4.6924 kg/m3 and 4.6926 kg/m3
248.15 K, 271.98 kPa, x1 = 0.2658 | 5.1061 kg/m3
248.15 K, 271.99 kPa, x1 = 0.2658 | 5.1059 kg/m3
248.15 K, 275.99 kPa, x1 = 0.2658 | 5.186 kg/m3 and 5.1858 kg/m3 and 5.1858 kg/m3
248.15 K, 303.31 kPa, x1 = 0.5069 | 4.5661 kg/m3 and 4.566 kg/m3 and 4.5662 kg/m3
248.15 K, 360.5 kPa, x1 = 0.5069 | 5.4703 kg/m3 and 5.4702 kg/m3 and 5.4702 kg/m3
248.15 K, 424.87 kPa, x1 = 0.5069 | 6.5058 kg/m3 and 6.5052 kg/m3 and 6.5054 kg/m3
248.16 K, 96.6 kPa, x1 = 0.2658 | 1.7471 kg/m3 and 1.747 kg/m3
248.16 K, 390.03 kPa, x1 = 0.7498 | 4.4827 kg/m3
248.16 K, 390.04 kPa, x1 = 0.7498 | 4.4825 kg/m3 and 4.4826 kg/m3
248.16 K, 500.33 kPa, x1 = 0.7498 | 5.7987 kg/m3 and 5.7985 kg/m3 and 5.7986 kg/m3
248.16 K, 580.7 kPa, x1 = 0.7498 | 6.7716 kg/m3 and 6.7717 kg/m3
248.16 K, 685.07 kPa, x1 = 0.7498 | 8.055 kg/m3 and 8.0552 kg/m3
248.16 K, 786.23 kPa, x1 = 0.7498 | 9.3205 kg/m3
248.16 K, 786.24 kPa, x1 = 0.7498 | 9.3204 kg/m3 and 9.3205 kg/m3
248.16 K, 835.59 kPa, x1 = 0.7498 | 9.9462 kg/m3
248.16 K, 835.6 kPa, x1 = 0.7498 | 9.946 kg/m3 and 9.9461 kg/m3
248.16 K, 859.93 kPa, x1 = 0.7498 | 10.2556 kg/m3
248.16 K, 859.95 kPa, x1 = 0.7498 | 10.2561 kg/m3 and 10.2559 kg/m3
248.16 K, 884.03 kPa, x1 = 0.7498 | 10.5636 kg/m3 and 10.5634 kg/m3 and 10.5637 kg/m3
248.17 K, 276.07 kPa, x1 = 0.7498 | 3.1457 kg/m3
248.17 K, 276.08 kPa, x1 = 0.7498 | 3.1457 kg/m3 and 3.1455 kg/m3
273.14 K, 124.74 kPa, x1 = 0.5069 | 1.6598 kg/m3 and 1.6598 kg/m3
273.14 K, 258.4 kPa, x1 = 0.5069 | 3.4826 kg/m3
273.15 K, 124.75 kPa, x1 = 0.5069 | 1.6598 kg/m3
273.15 K, 167.48 kPa, x1 = 0.2658 | 2.7681 kg/m3 and 2.7679 kg/m3
273.15 K, 167.49 kPa, x1 = 0.2658 | 2.7677 kg/m3
273.15 K, 218.01 kPa, x1 = 0.5069 | 2.9256 kg/m3
273.15 K, 218.04 kPa, x1 = 0.5069 | 2.9262 kg/m3
273.15 K, 218.06 kPa, x1 = 0.5069 | 2.9265 kg/m3
273.15 K, 242.18 kPa, x1 = 0.2658 | 4.0482 kg/m3 and 4.0482 kg/m3
273.15 K, 258.4 kPa, x1 = 0.5069 | 3.4831 kg/m3
273.15 K, 258.41 kPa, x1 = 0.5069 | 3.4831 kg/m3
273.15 K, 262.29 kPa, x1 = 0.5069 | 3.5352 kg/m3
273.15 K, 269.26 kPa, x1 = 0.5069 | 3.6315 kg/m3
273.15 K, 277.28 kPa, x1 = 0.5069 | 3.7427 kg/m3
273.15 K, 309 kPa, x1 = 0.5069 | 4.1836 kg/m3
273.15 K, 316.31 kPa, x1 = 0.5069 | 4.2857 kg/m3
273.15 K, 321.34 kPa, x1 = 0.5069 | 4.3577 kg/m3 and 4.3576 kg/m3
273.15 K, 321.35 kPa, x1 = 0.5069 | 4.3574 kg/m3
273.15 K, 323.08 kPa, x1 = 0.5069 | 4.3804 kg/m3
273.15 K, 340.33 kPa, x1 = 0.5069 | 4.6223 kg/m3
273.15 K, 340.34 kPa, x1 = 0.5069 | 4.6226 kg/m3
273.15 K, 340.36 kPa, x1 = 0.5069 | 4.6229 kg/m3
273.15 K, 344.34 kPa, x1 = 0.2658 | 5.85 kg/m3 and 5.8499 kg/m3 and 5.85 kg/m3
273.15 K, 401.7 kPa, x1 = 0.2658 | 6.8907 kg/m3 and 6.8903 kg/m3
273.15 K, 401.71 kPa, x1 = 0.2658 | 6.8904 kg/m3
273.15 K, 402.73 kPa, x1 = 0.5069 | 5.504 kg/m3
273.15 K, 406.4 kPa, x1 = 0.2658 | 6.9763 kg/m3
273.15 K, 406.45 kPa, x1 = 0.2658 | 6.9765 kg/m3 and 6.9764 kg/m3
273.15 K, 409.05 kPa, x1 = 0.5069 | 5.5939 kg/m3
273.15 K, 415.33 kPa, x1 = 0.5069 | 5.6832 kg/m3
273.15 K, 430.79 kPa, x1 = 0.2658 | 7.4249 kg/m3
273.15 K, 430.8 kPa, x1 = 0.2658 | 7.4251 kg/m3
273.15 K, 441.05 kPa, x1 = 0.5069 | 6.0518 kg/m3
273.15 K, 441.3 kPa, x1 = 0.5069 | 6.0554 kg/m3
273.15 K, 441.54 kPa, x1 = 0.5069 | 6.0588 kg/m3
273.15 K, 453.5 kPa, x1 = 0.5069 | 6.23 kg/m3
273.15 K, 453.52 kPa, x1 = 0.5069 | 6.23 kg/m3
273.15 K, 453.54 kPa, x1 = 0.5069 | 6.2304 kg/m3
273.15 K, 486.09 kPa, x1 = 0.2658 | 8.458 kg/m3 and 8.4582 kg/m3
273.15 K, 486.1 kPa, x1 = 0.2658 | 8.4581 kg/m3
273.15 K, 491.06 kPa, x1 = 0.5069 | 6.7718 kg/m3
273.15 K, 491.73 kPa, x1 = 0.2658 | 8.5643 kg/m3 and 8.5641 kg/m3 and 8.564 kg/m3
273.15 K, 497.16 kPa, x1 = 0.5069 | 6.8601 kg/m3
273.15 K, 500.88 kPa, x1 = 0.7498 | 5.2229 kg/m3
273.15 K, 500.89 kPa, x1 = 0.7498 | 5.2229 kg/m3
273.15 K, 503.23 kPa, x1 = 0.5069 | 6.9481 kg/m3
273.15 K, 506.92 kPa, x1 = 0.5069 | 7.0016 kg/m3
273.15 K, 506.93 kPa, x1 = 0.5069 | 7.0019 kg/m3
273.15 K, 506.95 kPa, x1 = 0.5069 | 7.0022 kg/m3
273.15 K, 537.7 kPa, x1 = 0.2658 | 9.4418 kg/m3 and 9.4416 kg/m3
273.15 K, 537.71 kPa, x1 = 0.2658 | 9.4418 kg/m3
273.15 K, 554.75 kPa, x1 = 0.5069 | 7.701 kg/m3
273.15 K, 555.81 kPa, x1 = 0.5069 | 7.717 kg/m3
273.15 K, 556.85 kPa, x1 = 0.5069 | 7.7324 kg/m3
273.15 K, 562.21 kPa, x1 = 0.2658 | 9.9156 kg/m3 and 9.9157 kg/m3
273.15 K, 568.57 kPa, x1 = 0.2658 | 10.0393 kg/m3 and 10.0391 kg/m3
273.15 K, 607.74 kPa, x1 = 0.5069 | 8.4834 kg/m3
273.15 K, 607.75 kPa, x1 = 0.5069 | 8.4836 kg/m3
273.15 K, 607.76 kPa, x1 = 0.5069 | 8.484 kg/m3
273.15 K, 608.84 kPa, x1 = 0.2658 | 10.8308 kg/m3 and 10.8306 kg/m3
273.15 K, 611.36 kPa, x1 = 0.5069 | 8.5381 kg/m3
273.15 K, 612.13 kPa, x1 = 0.5069 | 8.5492 kg/m3
273.15 K, 612.89 kPa, x1 = 0.5069 | 8.5606 kg/m3
273.15 K, 615.59 kPa, x1 = 0.2658 | 10.9646 kg/m3 and 10.9644 kg/m3 and 10.9642 kg/m3
273.15 K, 619.26 kPa, x1 = 0.5069 | 8.6551 kg/m3
273.15 K, 625.49 kPa, x1 = 0.5069 | 8.7476 kg/m3
273.15 K, 631.66 kPa, x1 = 0.5069 | 8.8402 kg/m3
273.15 K, 652.39 kPa, x1 = 0.2658 | 11.7012 kg/m3
273.15 K, 652.4 kPa, x1 = 0.2658 | 11.7011 kg/m3
273.15 K, 659.32 kPa, x1 = 0.2658 | 11.841 kg/m3 and 11.8409 kg/m3 and 11.8406 kg/m3
273.15 K, 699.84 kPa, x1 = 0.5069 | 9.8667 kg/m3
273.15 K, 701.3 kPa, x1 = 0.5069 | 9.889 kg/m3
273.15 K, 701.31 kPa, x1 = 0.5069 | 9.8889 kg/m3
273.15 K, 701.32 kPa, x1 = 0.5069 | 9.8887 kg/m3
273.15 K, 705.89 kPa, x1 = 0.5069 | 9.9581 kg/m3
273.15 K, 711.37 kPa, x1 = 0.5069 | 10.0422 kg/m3
273.15 K, 711.71 kPa, x1 = 0.5069 | 10.0475 kg/m3
273.15 K, 711.89 kPa, x1 = 0.5069 | 10.0504 kg/m3
273.15 K, 712.05 kPa, x1 = 0.5069 | 10.0527 kg/m3
273.15 K, 776.08 kPa, x1 = 0.5069 | 11.034 kg/m3
273.15 K, 781.94 kPa, x1 = 0.5069 | 11.1239 kg/m3
273.15 K, 787.74 kPa, x1 = 0.5069 | 11.2144 kg/m3
273.15 K, 802.95 kPa, x1 = 0.5069 | 11.451 kg/m3
273.15 K, 803.19 kPa, x1 = 0.5069 | 11.4546 kg/m3
273.15 K, 803.43 kPa, x1 = 0.5069 | 11.4585 kg/m3
273.15 K, 829.51 kPa, x1 = 0.5069 | 11.8643 kg/m3
273.15 K, 829.52 kPa, x1 = 0.5069 | 11.8644 kg/m3 and 11.8643 kg/m3
273.15 K, 883.12 kPa, x1 = 0.5069 | 12.7095 kg/m3
273.15 K, 888.99 kPa, x1 = 0.5069 | 12.8025 kg/m3
273.15 K, 894.82 kPa, x1 = 0.5069 | 12.8951 kg/m3
273.15 K, 899.8 kPa, x1 = 0.7498 | 9.5967 kg/m3 and 9.5966 kg/m3
273.15 K, 899.82 kPa, x1 = 0.7498 | 9.5965 kg/m3
273.15 K, 907.75 kPa, x1 = 0.5069 | 13.1005 kg/m3
273.15 K, 907.76 kPa, x1 = 0.5069 | 13.1006 kg/m3
273.15 K, 929.46 kPa, x1 = 0.5069 | 13.4491 kg/m3
273.15 K, 930.26 kPa, x1 = 0.5069 | 13.4619 kg/m3
